Laboratory results published in patent US20140228366A1, “HETEROARYL-SUBSTITUTED PYRAZOLOPYRIDINES AND USE THEREOF AS SOLUBLE GUANYLATE CYCLASE STIMULATORS” (BAYER INTELLECTUAL PROPERTY GMBH, priority 2011, published 2014).

Experiments:
[1] = biological target: T1, recombinant guanylate cyclase reporter cell line (Rattus norvegicus, UniProt P19686+P20595); assay: Effect on a recombinant guanylate cyclase reporter cell line; type: cell-based
T1 construct: expressed in transfected cells; host or cells: recombinant reporter cell line
T1 sequence (P19686 1-690): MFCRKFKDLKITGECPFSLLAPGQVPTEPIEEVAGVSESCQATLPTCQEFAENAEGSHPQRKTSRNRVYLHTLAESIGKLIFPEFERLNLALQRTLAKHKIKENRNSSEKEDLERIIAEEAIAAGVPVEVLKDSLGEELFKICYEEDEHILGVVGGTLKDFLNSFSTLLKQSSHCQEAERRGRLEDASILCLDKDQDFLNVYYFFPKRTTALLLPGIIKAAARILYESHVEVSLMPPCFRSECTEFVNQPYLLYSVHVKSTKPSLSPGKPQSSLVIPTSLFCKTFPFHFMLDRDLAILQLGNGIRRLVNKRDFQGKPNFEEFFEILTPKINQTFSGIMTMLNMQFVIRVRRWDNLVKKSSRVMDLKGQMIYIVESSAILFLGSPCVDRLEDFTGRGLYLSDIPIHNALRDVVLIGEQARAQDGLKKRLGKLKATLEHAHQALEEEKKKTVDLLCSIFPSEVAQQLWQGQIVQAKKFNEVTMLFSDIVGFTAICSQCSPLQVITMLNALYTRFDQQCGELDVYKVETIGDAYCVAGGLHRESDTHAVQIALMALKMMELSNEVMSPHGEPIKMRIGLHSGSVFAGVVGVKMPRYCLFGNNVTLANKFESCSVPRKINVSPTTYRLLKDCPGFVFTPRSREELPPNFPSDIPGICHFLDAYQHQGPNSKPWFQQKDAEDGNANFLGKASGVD
T1 sequence (P20595 1-619): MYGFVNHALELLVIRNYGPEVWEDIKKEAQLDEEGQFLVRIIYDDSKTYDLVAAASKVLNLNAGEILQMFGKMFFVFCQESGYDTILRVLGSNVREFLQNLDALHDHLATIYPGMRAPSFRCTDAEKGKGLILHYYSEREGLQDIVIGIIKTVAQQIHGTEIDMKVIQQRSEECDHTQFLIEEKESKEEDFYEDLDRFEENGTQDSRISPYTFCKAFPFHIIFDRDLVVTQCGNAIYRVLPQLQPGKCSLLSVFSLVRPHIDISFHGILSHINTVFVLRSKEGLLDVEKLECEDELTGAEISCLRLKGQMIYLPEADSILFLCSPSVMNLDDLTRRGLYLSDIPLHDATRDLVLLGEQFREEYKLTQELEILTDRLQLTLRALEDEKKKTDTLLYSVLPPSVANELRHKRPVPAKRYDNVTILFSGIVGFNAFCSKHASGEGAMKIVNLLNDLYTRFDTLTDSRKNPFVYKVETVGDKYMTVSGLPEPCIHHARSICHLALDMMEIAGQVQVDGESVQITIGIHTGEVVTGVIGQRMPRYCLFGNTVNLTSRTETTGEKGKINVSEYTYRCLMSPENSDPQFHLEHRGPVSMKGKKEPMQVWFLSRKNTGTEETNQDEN
Description: The cellular activity of the compounds according to the invention is determined using a recombinant guanylate cyclase reporter cell line, as described in F. Wunder et al., Anal. Biochem. 339, 104-112 (2005).

[2] = Pharmacokinetic parameters following intravenous administration in rats; type: in vivo, male Wistar rats; conditions: intravenous administration of 0.3 mg/kg; for MRT / half-life: male, Wistar, rat, plasma; for half-life: terminal half life
Description: The pharmacokinetic parameters of the compounds of the formula (I) according to the invention are determined in male CD-1 mice, male Wistar rats and/or female beagles. The administration volume is 5 ml/kg for mice, 5 ml/kg for rats and 0.5 ml/kg for dogs. Intravenous administration is via a formulation of species-specific plasma/DMSO (99/1) in the case of mice and rats and via water/PEG400/ethanol (50/40/10 or 30/60/10) in the case of dogs. The removal of blood from rats is simplified by inserting a silicone catheter into the right Vena jugularis externa prior to substance administration. The surgical intervention takes place one day prior to the experiment with isofluran anesthesia and administration of an analgetic (atropine/rimadyl (3/1) 0.1 ml s.c.). Substance administration is as i.v. bolus in the case of mice, as i.v. bolus or via a 15-minute infusion in the case of rats and via a 15-minute infusion in the case of dogs. Removal of blood is after 0.033, 0.083, 0.17, 0.5, 1, 2, 3, 4, 6, 7 and 24 hours in the case of mice and, after a 15-minute infusion, after 0.083, 0.25, 0.28, 0.33, 0.42, 0.75, 1, 2, 3, 4, 6, 7 (or 8 in the case of Example 3) and 24 hours in the case of dogs and rats and after an i.v. bolus administration, after 0.033, 0.083, 0.17, 0.5, 1, 2, 3, 4, 6, 7 and 24 hours in the case of rats. For all species, oral administration of the dissolved substance via gavage is carried out based on a water/PEG400/ethanol formulation (50/40/10). Here, the removal of blood from rats and dogs is after 0.083, 0.17, 0.5, 0.75, 1, 2, 3, 4, 6, 7 and 24 hours. The blood is removed into heparinized tubes. The blood plasma is then obtained by centrifugation; if required, it can be stored at −20° C. until further processing.
An internal standard (ZK 228859) is added to the samples of the compounds of the formula (I) according to the invention, calibration samples and QCs, and the protein is precipitated using excess acetonitrile. After addition of an ammonium acetate buffer (0.01 M, pH 6.8) and subsequent vortexing, the mixture is centrifuged at 1000 g and the supernatant is examined by LC-MS/MS (API 4000, AB Sciex). Chromatographic separation is carried out on an Agilent 1100-HPLC. The injection volume is 10 μl. The separation column used is a Phenomenex Luna 5μ C8(2) 100A 50×2 mm, adjusted to a temperature of 40° C. A binary mobile phase gradient at 500 μl/min is used (A: 0.01M ammonium acetate buffer pH 6.8, B: 0.1% formic acid in acetonitrile): 0 min (90% A), 1 min (90% A), 3 min (10% A), 4 min (10% A), 4.50 min (90% A), 6 min (90% A). The temperature of the Turbo V ion source is 500° C. (Example 2), 400° C. (Example 3) or 450° C. (Example 6). The following MS instrument parameters are used: curtain gas 15 units (Examples 2 and 3) or 10 units (Example 6), ion spray voltage 4.8 kV, gas 1 45 units (Example 2) or 50 units (Examples 3 and 6), gas 2 35 units (Examples 2 and 6) or 40 units (Example 3), CAD gas 4 units (Examples 2 and 6) or 8 units (Example 3). The substances are quantified by peak heights or areas using extracted ion chromatograms of specific MRM experiments.
The plasma concentration/time plots determined are used to calculate the pharmacokinetic parameters such as AUC, Cmax, t112 (terminal half life), MRT (mean residence time) and CL (clearance), using the validated pharmacokinetic calculation program KinEx (Vers. 3).
Since the substance quantification is performed in plasma, it is necessary to determine the blood/plasma distribution of the substance in order to be able to adjust the pharmacokinetic parameters correspondingly. For this purpose, a defined amount of substance is incubated in heparinized whole blood of the species in question in a rocking roller mixer for 20 min. After centrifugation at 1000 g, the plasma concentration is measured (see above) and determined by calculating the quotient of the Cblood/Cplasma values.

rabbit aorta rings = assay: Vasorelaxant effect in vitro (phenylephrine-contracted aorta rings); conditions: Oryctolagus cuniculus, phenylephrine contraction, concentration reducing control contraction by 50%
Description: Rabbits are stunned by a blow to the neck and exsanguinated. The aorta is removed, freed from adhering tissue and divided into rings of a width of 1.5 mm. The rings are placed individually under an initial tension in 5 ml organ baths with Krebs-Henseleit solution which is at 37° C., is gassed with carbogen and has the following composition (in each case mM): sodium chloride: 119; potassium chloride: 4.8; calcium chloride dihydrate: 1; magnesium sulphate heptahydrate: 1.4; potassium dihydrogenphosphate: 1.2; sodium bicarbonate: 25; glucose: 10. The contractile force is determined with Statham UC2 cells, amplified and digitalized using A/D transducers (DAS-1802 HC, Keithley Instruments Munich), and recorded in parallel on linear recorders. To produce a contraction, phenylephrine is added to the bath cumulatively in increasing concentration. After several control cycles, the substance to be investigated is added in each further run in increasing dosage in each case, and the height of the contraction achieved is compared with the height of the contraction reached in the last preceding run. This is used to calculate the concentration needed to reduce the magnitude of the control value by 50% (IC50 value). The standard administration volume is 5 μl; the DMSO content in the bath solution corresponds to 0.1%.

Structure (SMILES): CC1(C)C(=O)Nc2nc(-c3nn(Cc4ncccc4F)c4ncc(F)cc34)nnc21 [Example 2, 3-{5-Fluoro-1-[(3-fluoropyridin-2-yl)methyl]-1H-pyrazolo[3,4-b]pyridin-3-yl}-7,7-dimethyl-5,7-dihydro-6H-pyrrolo[2,3-e][1,2,4]triazin-6-one]
- MEC (minimum effective concentration) [1]: 1 µM
- AUCnorm [2]: 13 kg·h/L
- CLblood [2]: 2.17 mL/min/kg
- MRT [2]: 7.9 h
- half-life [2]: 6.1 h
- IC50 (rabbit aorta rings): 234 nM

Structure (SMILES): CC1(C)C(=O)Nc2nc(-c3nn(Cc4ncccc4F)c4ncc(F)cc34)nc(N)c21 [Example 3, 4-Amino-2-{5-fluoro-1-[(3-fluoropyridin-2-yl)methyl]-1H-pyrazolo[3,4-b]pyridin-3-yl}-5,5-dimethyl-5,7-dihydro-6H-pyrrolo[2,3-d]pyrimidin-6-one]
- MEC (minimum effective concentration) [1]: 0.3 µM
- AUCnorm [2]: 0.93 kg·h/L
- CLblood [2]: 15.5 mL/min/kg
- MRT [2]: 1.3 h
- half-life [2]: 1 h
- IC50 (rabbit aorta rings): 34 nM

Structure (SMILES): CC1(C)C(=O)Nc2nc(-c3nn(Cc4ncccc4F)c4ncc(F)cc34)ncc21 [Example 6, 2-{5-Fluoro-1-[(3-fluoropyridin-2-yl)methyl]-1H-pyrazolo[3,4-b]pyridin-3-yl}-5,5-dimethyl-5,7-dihydro-6H-pyrrolo[2,3-d]pyrimidin-6-one]
- MEC (minimum effective concentration) [1]: 0.03 µM
- AUCnorm [2]: 3.5 kg·h/L
- CLblood [2]: 6.17 mL/min/kg
- MRT [2]: 5.6 h
- half-life [2]: 4.4 h
- IC50 (rabbit aorta rings): 82 nM
